The record followed here is ChEMBL document CHEMBL1201862, “PubChem BioAssay data set” (2004).

Molecules are shown by their SMILES.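 Assay format: 96-well plates, 48-hour exposure. GI50 marks 50% less growth.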 Activity calls are given as the source filed them. No stated cut-off is given here; in the data, active = GI50 up to about 1.1 µM and inactive = higher.

Test systems include U-251; CAKI-1; K562; HCT-15; HOP-62; LOX IMVI; CCRF-CEM; Malme-3M; RPMI-8226; SK-MEL-2; TK-10; SK-MEL-28; UACC-257; COLO 205; SNB-78; HL-60.
Experiment in all cases: NCI tumour cell line growth inhibition, 48 h

`COc1ccc2c(c1)[n+]([O-])c(-c1ccccc1)c(N)[n+]2[O-]`: the GI50 in the assay with U-251 is 31.3 µM (inactive); in the assay with CAKI-1, 37.2 µM (inactive); in the assay on K562 it was 45.2 µM (inactive); with HCT-15 it was 35.3 µM; in the assay on HOP-62, 39 µM (inactive); in the assay on LOX IMVI, 44.1 µM (inactive). The GI50 is 53 µM (inactive) in the assay with CCRF-CEM; 20.9 µM (inactive) in the assay on Malme-3M; 77.1 µM (inactive) in the assay on RPMI-8226; 46 µM (inactive) in the assay on SK-MEL-2; > 100 µM (inactive) in the assay on TK-10; 25 µM (inactive) in the assay on SK-MEL-28. Besides, the GI50 is 21.2 µM (inactive) in the assay on UACC-257, 20.4 µM (inactive) in the assay on COLO 205, 44.8 µM (inactive) with SNB-78 and 41.6 µM (inactive) with HL-60.

Take `Cc1ccc(-c2c(N)[n+]([O-])c3ccccc3[n+]2[O-])cc1`: the GI50 in the assay with U-251 is 14.3 µM (inactive); in the assay with CAKI-1, 3.81 µM (inactive); in the assay on K562 it was 15 µM (inactive); in the assay with HCT-15, 3.42 µM; with HOP-62, 17.1 µM (inactive); in the assay on LOX IMVI it was 11 µM (inactive). Moreover, the GI50 is 47.4 µM (inactive) in the assay with CCRF-CEM; 3.47 µM (inactive) in the assay on Malme-3M; 21.4 µM (inactive) in the assay with RPMI-8226; 8.51 µM (inactive) with SK-MEL-2; 18.4 µM (inactive) in the assay on TK-10; 6.52 µM (inactive) in the assay on SK-MEL-28. Besides, the GI50 was 7.21 µM (inactive) in the assay with UACC-257, 15.2 µM (inactive) with COLO 205, 13 µM (inactive) with SNB-78 and 9.95 µM (inactive) in the assay with HL-60.

As for `CCOC(=O)C1(c2ccccc2)CCC(=O)CC1`, the GI50 with U-251 was > 100 µM (inactive); in the assay on CAKI-1, > 100 µM (inactive); with K562, > 100 µM (inactive); in the assay on HCT-15, more than 100 µM; with HOP-62 it was > 100 µM (inactive); in the assay on LOX IMVI, > 100 µM (inactive). Moreover, the GI50 in the assay on CCRF-CEM, in the assay on Malme-3M, in the assay on SK-MEL-2, with TK-10, in the assay on SK-MEL-28 and in the assay with UACC-257 was > 100 µM (inactive) in each case. Moreover, the GI50 with COLO 205, with SNB-78 and with HL-60 was > 100 µM (inactive) in each case.

On to `CC(C)C(N)=O` [ISOBUTYRAMIDE], for which the GI50 in the assay on U-251 is > 5000 µM (inactive); in the assay with CAKI-1, > 5000 µM (inactive); in the assay with K562, > 5000 µM (inactive); in the assay on HCT-15, more than 5000 µM; in the assay with HOP-62 it was > 5000 µM (inactive); in the assay on LOX IMVI it was > 5000 µM (inactive). Moreover, the GI50 in the assay on CCRF-CEM, with Malme-3M, in the assay on RPMI-8226, with SK-MEL-2, in the assay with TK-10 and with SK-MEL-28 was > 5000 µM (inactive) throughout. The GI50 in the assay with UACC-257, with COLO 205, with SNB-78 and with HL-60 was > 5000 µM (inactive) throughout.

As for `CC(=O)c1c(O)ccc2c1CC(CC=O)O2` (stereo not drawn), the GI50 is 83.9 µM (inactive) with U-251; > 100 µM (inactive) in the assay on CAKI-1; > 100 µM (inactive) in the assay on K562; 52.6 µM in the assay on HCT-15; > 100 µM (inactive) in the assay on HOP-62; 19.9 µM (inactive) with LOX IMVI. The GI50 with CCRF-CEM was 74.8 µM (inactive); in the assay on Malme-3M, > 100 µM (inactive); in the assay on RPMI-8226, 45.3 µM (inactive); in the assay on TK-10 it was > 100 µM (inactive); with SK-MEL-28 it was > 100 µM (inactive); in the assay with UACC-257 it was > 100 µM (inactive). The figures for the GI50 in the assay on COLO 205, with SNB-78 and in the assay with HL-60 were > 100 µM (inactive), 64.6 µM (inactive) and > 100 µM (inactive), respectively.

With `CCOC(=O)C(C(=O)OCC)=C1N[C@H](C(=O)OCC)CS1`, the GI50 is > 100 µM (inactive) in the assay on U-251; > 100 µM (inactive) in the assay with CAKI-1; > 100 µM (inactive) in the assay with K562; more than 100 µM in the assay on HCT-15; > 100 µM (inactive) in the assay with HOP-62; > 100 µM (inactive) in the assay with LOX IMVI. Besides, the GI50 with CCRF-CEM, with Malme-3M, in the assay with RPMI-8226, with SK-MEL-2, in the assay with SK-MEL-28 and in the assay with UACC-257 was > 100 µM (inactive) in each case. For the same compound, the GI50 in the assay with COLO 205, in the assay on SNB-78 and in the assay on HL-60 was > 100 µM (inactive) throughout.

With `CN(C)CCNC(=O)c1cccc2[nH]c(-c3ccccc3)nc12`, the GI50 in the assay on U-251 was 25.4 µM (inactive); in the assay with CAKI-1, 24.7 µM (inactive); with K562, 26.4 µM (inactive); in the assay on HCT-15, 15.8 µM; in the assay on HOP-62 it was 22.3 µM (inactive); in the assay with LOX IMVI, 15.6 µM (inactive). Besides, the GI50 in the assay with CCRF-CEM was 15.9 µM (inactive); in the assay with RPMI-8226 it was 32.1 µM (inactive); in the assay with SK-MEL-2 it was 18.5 µM (inactive); with TK-10, 18.5 µM (inactive); in the assay with SK-MEL-28, 18.3 µM (inactive); with UACC-257, 16.9 µM (inactive). Besides, the GI50 was 11.6 µM (inactive) in the assay with COLO 205, 32.1 µM (inactive) in the assay on SNB-78 and 21.7 µM (inactive) in the assay on HL-60.

In the case of `Cn1c(=O)c2c3oc(=O)cc(O)c3c(=O)n3c4ccccc4n(c1=O)c23`, the GI50 was 41.4 µM (inactive) in the assay on U-251; 32.3 µM (inactive) with CAKI-1; 20.3 µM (inactive) in the assay on K562; 27.8 µM in the assay on HCT-15; > 100 µM (inactive) with HOP-62; 15.8 µM (inactive) in the assay with LOX IMVI. For the same compound, the GI50 is 29.2 µM (inactive) in the assay with CCRF-CEM; 33.1 µM (inactive) in the assay on Malme-3M; 24 µM (inactive) in the assay with RPMI-8226; 23.4 µM (inactive) in the assay with SK-MEL-2; > 100 µM (inactive) in the assay with TK-10; 26.1 µM (inactive) in the assay on UACC-257. In addition, the results for the GI50 in the assay on COLO 205, in the assay on SNB-78 and in the assay on HL-60 were 27.9 µM (inactive), 37 µM (inactive) and 21.1 µM (inactive), respectively.

On to `c1ccc(CCCC2Sc3cccc4cccc(c34)S2)cc1`, for which the GI50 in the assay with U-251 is > 100 µM (inactive); in the assay with CAKI-1 it was > 100 µM (inactive); in the assay on K562 it was > 100 µM (inactive); in the assay on HCT-15 it was more than 100 µM; in the assay on HOP-62 it was > 100 µM (inactive); in the assay with LOX IMVI it was > 100 µM (inactive). Besides, the GI50 is > 100 µM (inactive) with CCRF-CEM; 78.3 µM (inactive) in the assay with Malme-3M; 52.7 µM (inactive) in the assay on RPMI-8226; > 100 µM (inactive) in the assay on SK-MEL-2; > 100 µM (inactive) in the assay with TK-10; > 100 µM (inactive) in the assay with SK-MEL-28. Besides, the GI50 in the assay with COLO 205 was > 100 µM (inactive); in the assay on SNB-78, > 100 µM (inactive); in the assay with HL-60, 64.6 µM (inactive).

Consider `c1ccc(-c2sc(-c3ccccc3)c3c2C(c2ccccc2)c2c(-c4ccccc4)sc(-c4ccccc4)c2C3c2ccccc2)cc1` (stereo not drawn), for which the GI50 with U-251 is > 100 µM (inactive); with CAKI-1, > 100 µM (inactive); with K562, > 100 µM (inactive); in the assay on HCT-15, more than 100 µM; with HOP-62, > 100 µM (inactive); in the assay with LOX IMVI, > 100 µM (inactive). For the same compound, the GI50 in the assay with CCRF-CEM, with Malme-3M, with RPMI-8226, with TK-10, in the assay on SK-MEL-28 and in the assay with UACC-257 was > 100 µM (inactive) each time. Moreover, the GI50 in the assay with COLO 205, in the assay on SNB-78 and with HL-60 was > 100 µM (inactive) in each case.
